For assay [1], the system named is Petroselinum crispum cells. Put plainly: Oxygen transfer rate (RAMOS) in suspension cells after treatment with a defense priming substance or elicitor alone. The format is cell-based. The settings on record: 200 μM added 72 hours after inoculation; FIG. 1b. An excerpt: In the determination of the respiration activity with RAMOS, a measuring cycle is continuously repeated during fermentation. This measuring cycle comprises a measuring phase and a rinsing phase. During the rinsing phase, air is flushed through the measuring flask at a specific flow rate. At the beginning of the measuring phase, inlet and outlet valves of the measuring flask are closed. Respiration of the cells leads to a decrease in the oxygen partial pressure and to an increase in the carbon dioxide partial pressure in the gas headspace of the measuring flask. These partial pressures are monitored by an oxygen sensor and a differential pressure sensor. In addition, a carbon dioxide sensor may be used. Assuming linear changes in the measuring phase, a computer calculates the oxygen transfer rate and the carbon dioxide transfer rate according to the formulas provided above. […]
12.5 ml of a suspension of Petroselinum crispurn cells were inoculated in 250 ml shaking flasks containing 37.5 ml of modified Gamborg B5 medium and cultured at a temperature of 25° C. at a shaking frequency of 180 U/min and a shaking diameter of 5 cm in a RAMOS device (HiTec Zang, Herzogenrath). During the culture the oxygen partial pressure of the gas phase in the head space of the flask was measured and the oxygen transfer rate was calculated therefrom. […]

Assay [2] has as its system Petroselinum crispum cells. Description: Oxygen transfer rate (RAMOS) in suspension cells treated with substance and then with the elicitor Pep13. Type of assay: cell-based. To be noted: 200 μM 72 hours after inoculation; for oxygen transfer rate in comparison to untreated cells and to cells only treated with Pep13 (specificity): 1 nM Pep13 96 hours after inoculation, FIG. 2. Here is the method:
12.5 ml of a suspension of Petroselinum crispurn cells were inoculated in 250 ml shaking flasks containing 37.5 ml of modified Gamborg B5 medium and cultured at a temperature of 25° C. at a shaking frequency of 180 U/min and a shaking diameter of 5 cm in a RAMOS device (HiTec Zang, Herzogenrath). During the culture the oxygen partial pressure of the gas phase in the head space of the flask was measured and the oxygen transfer rate was calculated therefrom.
In yet another experiment, the cells were treated with 200 μM salicylic acid 72 hours after inoculation and with Pep13 96 hours after inoculation.
In parallel experiments, the cells were either treated with 200 μM salicylic acid, 200 μM 4-chlorsalicylic acid or with 200 μM 3-hydroxy benzoic acid 72 hours after inoculation and then in all experiments 1 nM Pep13 was added 96 hours after inoculation.

As to `O=C(O)c1ccccc1O` [salicylic acid], in assay [1], the “duration of the increase in oxygen transfer rate” value is reported as “about 48 hours” and the “oxygen transfer rate in comparison to the untreated cells” value was “increase in the oxygen transfer rate”. In addition, in assay [2], the “oxygen transfer rate in comparison to untreated cells and to cells only treated with Pep13 (specificity)” value (“oxygen transfer rate … (specificity)” below) was “increase in the oxygen transfer rate”. Further, the “oxygen transfer rate compared with treatment with Pep13 alone” value in assay [2] (Pep13 96 hours after inoculation, FIG. 1d) is given as “stronger increase in the oxygen transfer rate than the treatment with Pep13 alone”.
As to `O=C(O)c1cccc(O)c1` [3-hydroxy benzoic acid], the “oxygen transfer rate … (specificity)” value in assay [2] was “same increase in the oxygen transfer rate as the addition of Pep13 alone”.
Turning to `O=C(O)c1ccc(Cl)cc1O` [4-chlorsalicylic acid], in assay [2], the “oxygen transfer rate … (specificity)” value was “increase in the oxygen transfer rate”.

The values are drawn from patent publication US20170254801A1, “METHOD FOR IDENTIFYING SUBSTANCES WHICH PRIME A DEFENSE RESPONSE” (RHEINISCH-WESTFÄLISCHE TECHNISCHE HOCHSCHULE AACHEN (RWTH), priority 2014, published 2017).
